Test results reported in ChEMBL document CHEMBL1201862, “PubChem BioAssay data set” (2004).
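Briefly, cells in 96-well plates were exposed to five compound concentrations for 48 h, and endpoints were estimated by linear interpolation. At the GI50, growth is halved.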 Activity calls are given as the source filed them. Cut-off read from the data, not from the text of the source: active = GI50 up to about 1.1 µM and inactive = higher.

Assays:
Experiment in all cases: NCI-60 cell line screen, 48 h
MOLT-4 = tested on: MOLT-4
MDA-MB-231 = tested on: MDA-MB-231
KM12 = tested on: KM12
K562 = tested on: K562
ACHN = tested on: ACHN
SNB-19 = tested on: SNB-19
HCT-15 = tested on: HCT-15
OVCAR-5 = tested on: OVCAR-5
BT-549 = tested on: BT-549
SK-MEL-28 = tested on: SK-MEL-28
CAKI-1 = tested on: CAKI-1
PC-3 = tested on: PC-3
SN12C = tested on: SN12C
HCT-116 = tested on: HCT-116
OVCAR-4 = tested on: OVCAR-4
SF-539 = tested on: SF-539
SF-268 = tested on: SF-268
HL-60 = tested on: HL-60
RXF 393 = tested on: RXF 393
M14 = tested on: M14

Row | Structure (SMILES) | GI50 (MOLT-4) | GI50 (MDA-MB-231) | GI50 (KM12) | GI50 (K562) | GI50 (ACHN) | GI50 (SNB-19) | GI50 (HCT-15) | GI50 (OVCAR-5) | GI50 (BT-549) | GI50 (SK-MEL-28) | GI50 (CAKI-1) | GI50 (PC-3) | GI50 (SN12C) | GI50 (HCT-116) | GI50 (OVCAR-4) | GI50 (SF-539) | GI50 (SF-268) | GI50 (HL-60) | GI50 (RXF 393) | GI50 (M14)
1 | COc1cc2c3c(c4ccc(O)cc4c2cc1OC)[C@@H](O)[C@@H]1CCCN1C3 | < 0.001 µM (active) | < 0.001 µM (active) | < 0.001 µM (active) | 0.00203 µM (active) | < 0.001 µM (active) | < 0.001 µM (active) | < 0.001 µM | < 0.001 µM (active) | 0.00168 µM (active) | < 0.001 µM (active) | < 0.001 µM (active) | 0.0019 µM (active) | < 0.001 µM (active) | < 0.001 µM (active) | < 0.001 µM (active) | < 0.001 µM (active) | < 0.001 µM (active) | 0.00116 µM (active) | 0.00123 µM (active) | < 0.001 µM (active)
2 | O=C1c2ccccc2C(=O)c2c(OCCOCCO)cccc21 | 58.3 µM (inactive) | 0.935 µM (active) | 46.6 µM (inactive) | > 100 µM (inactive) | 43.9 µM (inactive) | > 100 µM (inactive) | 63.7 µM | > 100 µM (inactive) | > 100 µM (inactive) | > 100 µM (inactive) | 21.9 µM (inactive) | 38.1 µM (inactive) | 0.714 µM (active) | 45.6 µM (inactive) | 72.9 µM (inactive) | 45.3 µM (inactive) | 44.9 µM (inactive) | > 100 µM (inactive) | 48.6 µM (inactive) | > 100 µM (inactive)
3 | CCOP(=O)(OCC)C(Cc1ccc(OC)c(OC)c1)N=C(c1ccccc1)c1ccccc1 (configuration not stated) |  | 42.3 µM (inactive) | 36.4 µM (inactive) | < 0.01 µM (active) | 41.6 µM (inactive) | 63 µM (inactive) | 32.5 µM | 70.5 µM (inactive) | > 100 µM (inactive) | 45.3 µM (inactive) | 67 µM (inactive) | 32.4 µM (inactive) | 42 µM (inactive) | 27.1 µM (inactive) | 81.7 µM (inactive) | 75 µM (inactive) | > 100 µM (inactive) | 31.3 µM (inactive) | 61.4 µM (inactive) | 51.8 µM (inactive)
4 | COC(=O)C1=COC2OC3CC1C2C(C)O3 (configuration not stated) | > 100 µM (inactive) | > 100 µM (inactive) | > 100 µM (inactive) |  | > 100 µM (inactive) | > 100 µM (inactive) | > 100 µM | > 100 µM (inactive) | > 100 µM (inactive) | > 100 µM (inactive) | > 100 µM (inactive) | > 100 µM (inactive) | > 100 µM (inactive) | > 100 µM (inactive) | > 100 µM (inactive) | > 100 µM (inactive) | > 100 µM (inactive) | > 100 µM (inactive) | > 100 µM (inactive) | > 100 µM (inactive)
5 | CN1C(=O)C2C=C3CCCCC3=CC2N(C)C1=O (configuration not stated) | > 100 µM (inactive) | > 100 µM (inactive) | > 100 µM (inactive) | > 100 µM (inactive) | > 100 µM (inactive) | > 100 µM (inactive) | > 100 µM | > 100 µM (inactive) | > 100 µM (inactive) | > 100 µM (inactive) | > 100 µM (inactive) | > 100 µM (inactive) | > 100 µM (inactive) | > 100 µM (inactive) | > 100 µM (inactive) | > 100 µM (inactive) | > 100 µM (inactive) | > 100 µM (inactive) | > 100 µM (inactive) | > 100 µM (inactive)
6 | COc1ccc(-c2c(-c3ccccc3)c(C)nc3nc(SC)nc(SC)c23)cc1OC | 5.81 µM (inactive) | 20.9 µM (inactive) | 18.1 µM (inactive) | 4.54 µM (inactive) | 19.9 µM (inactive) | 26.7 µM (inactive) | 8.2 µM | 12.4 µM (inactive) | 24.8 µM (inactive) | 22.8 µM (inactive) | 0.764 µM (active) | 4.29 µM (inactive) | 7.4 µM (inactive) | 6.18 µM (inactive) |  | 5.2 µM (inactive) | 24 µM (inactive) | 3.14 µM (inactive) | 17.1 µM (inactive) | 22.8 µM (inactive)
